# Laboratory results published in US4975374A (priority 1987, dated 1990).
# Legend:
# E. coli transformants = experiment: Fragment exchange: transformants selected for PPT resistance; format: cell-based
# Excerpt: (§1) Tables I and II show the results obtained.
# [1] = molecular target: T1, pea leaf glutamine synthetase (Pisum sativum, UniProt P08281); conditions: mixed competitive inhibitor; cited from earlier work
# T1 sequence (P08281 50-430): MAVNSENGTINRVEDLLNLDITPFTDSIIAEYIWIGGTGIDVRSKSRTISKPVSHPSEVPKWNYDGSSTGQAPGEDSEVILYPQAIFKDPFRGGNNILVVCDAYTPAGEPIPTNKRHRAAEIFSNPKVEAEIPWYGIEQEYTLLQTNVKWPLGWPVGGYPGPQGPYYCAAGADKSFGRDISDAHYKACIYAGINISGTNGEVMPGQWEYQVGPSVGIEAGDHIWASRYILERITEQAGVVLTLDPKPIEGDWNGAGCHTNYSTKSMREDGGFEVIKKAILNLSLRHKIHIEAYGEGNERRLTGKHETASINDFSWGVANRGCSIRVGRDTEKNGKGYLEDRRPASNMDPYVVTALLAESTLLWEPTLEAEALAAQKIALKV
# wild-type GS (pCGS3) = molecular target: T2, wild-type GS (pCGS3) (Medicago sativa, UniProt P04078); experiment: Inhibition of GS activity by PPT, lysate of E. coli FDB213 containing pCGS3; format: biochemical, alfalfa; conditions: read-out: Relative GS Enzyme Activity
# T2 construct: made in house; host or cells: E. coli FDB213 (glnA deletion), clarified lysate
# T2 sequence (P04078 1-356): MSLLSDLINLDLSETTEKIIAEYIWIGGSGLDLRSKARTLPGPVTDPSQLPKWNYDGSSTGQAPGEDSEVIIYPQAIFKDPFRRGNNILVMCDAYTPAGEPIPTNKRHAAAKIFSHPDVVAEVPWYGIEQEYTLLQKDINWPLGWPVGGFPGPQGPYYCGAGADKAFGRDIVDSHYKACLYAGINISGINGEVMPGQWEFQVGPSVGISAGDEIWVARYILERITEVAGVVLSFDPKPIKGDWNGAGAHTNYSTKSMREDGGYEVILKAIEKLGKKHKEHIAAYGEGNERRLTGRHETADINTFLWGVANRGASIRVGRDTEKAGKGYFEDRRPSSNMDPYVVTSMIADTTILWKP
# Description: (§2) The cells were collected by centrifugation at 5,000 r.p.m. (5° C.) for 5 min, resuspended in 1.0 ml 10mM Tris-HCl, pH 7.5, 1 mM EDTA, 5 mM beta-mercaptoethanol, and lysed by sonication.
# [2] = molecular target: T3, PPT resistant mutant GS (ser 245) (pCGS3-SER245) (Medicago sativa, UniProt P04078, G245S); experiment: Inhibition of GS activity by PPT, lysate of E. coli FDB213 containing pCGS3-Ser245; format: biochemical, alfalfa; conditions: read-out: Relative GS Enzyme Activity
# T3 construct: made in house; host or cells: E. coli FDB213 (glnA deletion), clarified lysate
# Description: as §2
# [3] = molecular target: T4, PPT resistant mutant GS (lys 332) (pCGS3-LYS332) (Medicago sativa, UniProt P04078, R332K); experiment: biochemical; parameters: species or system alfalfa; conditions: read-out: Relative GS Enzyme Activity
# T4 construct: made in house; host or cells: E. coli FDB213 (glnA deletion), clarified lysate
# Description: as §2
# E. coli containing pCGS3 = experiment: Replating on M9 with PPT, plasmid pCGS3; format: cell-based
# Excerpt: as §1
# T3 sequence (P04078 whole entry G245S): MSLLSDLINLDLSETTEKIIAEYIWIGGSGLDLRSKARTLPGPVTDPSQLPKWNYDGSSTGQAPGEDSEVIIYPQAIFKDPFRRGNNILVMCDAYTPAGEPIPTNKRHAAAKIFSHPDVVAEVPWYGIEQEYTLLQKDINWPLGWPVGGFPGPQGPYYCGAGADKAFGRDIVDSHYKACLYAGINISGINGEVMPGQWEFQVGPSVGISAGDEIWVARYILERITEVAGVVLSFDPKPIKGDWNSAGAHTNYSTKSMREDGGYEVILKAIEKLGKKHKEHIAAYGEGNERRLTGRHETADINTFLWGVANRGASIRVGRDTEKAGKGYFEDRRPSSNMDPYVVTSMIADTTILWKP
# T4 sequence (P04078 whole entry R332K): as the sequence (P04078 whole entry G245S) above, with S245G, R332K counted along it
compound,measurement,setting,value
"CP(=O)(O)CC[C@H](N)C(=O)O [L-PPT, L-phosphinothricin]",NUMBER OF COLONIES M9 AMP + 3 mM L-PPT,E. coli transformants; 9: CCC pCGS3,100
same,NUMBER OF COLONIES M9 AMP + 3 mM L-PPT,E. coli transformants; 10: CCC pCGS3 PPT^r,> 1000
same,NUMBER OF COLONIES M9 AMP + 3 mM L-PPT,"E. coli transformants; ligation 2: insert PPT^r SalI-NcoI, vector SalI-NcoI",8
same,NUMBER OF COLONIES M9 AMP + 3 mM L-PPT,"E. coli transformants; ligation 4: insert PPT^r NcoI-EcoRI, vector NcoI-EcoRI",6
same,NUMBER OF COLONIES M9 AMP + 3 mM L-PPT,"E. coli transformants; ligation 6: insert PPT^r EcoRI-HindIII, vector EcoRI-HindIII",300
same,NUMBER OF COLONIES M9 AMP + 3 mM L-PPT,"E. coli transformants; ligation 8: insert PPT^r HindIII-BamHI, vector HindIII-BamHI",2
"CS(=N)(=O)CCC(N)C(=O)O (centres unmarked) [MSO, methione sulfoximine]",Ki,[1],160 µM
"CP(=O)(O)CC[C@H](N)C(=O)O [PPT, phosphinothricin]",remaining activity at 4 µM,wild-type GS (pCGS3); 4 uM PPT,102%
same,remaining activity at 25 µM,wild-type GS (pCGS3); 25 uM PPT,95.7%
same,remaining activity at 62.5 µM,wild-type GS (pCGS3); 62.5 uM PPT,84%
same,remaining activity at 125 µM,wild-type GS (pCGS3); 125 uM PPT,68%
same,remaining activity at 250 µM,wild-type GS (pCGS3); 250 uM PPT,42.7%
same,remaining activity at 2000 µM,wild-type GS (pCGS3); 2 mM PPT,15%
same,remaining activity at 20000 µM,wild-type GS (pCGS3); 20 mM PPT,4.3%
same,remaining activity at 4 µM,[2],103%
same,remaining activity at 25 µM,[2],103%
same,remaining activity at 62.5 µM,[2],97.3%
same,remaining activity at 125 µM,[2],91.4%
same,remaining activity at 250 µM,[2],80.6%
same,remaining activity at 2000 µM,[2],30.7%
same,remaining activity at 20000 µM,[2],5.3%
same,remaining activity at 4 µM,[3],103%
same,remaining activity at 25 µM,[3],103%
same,remaining activity at 62.5 µM,[3],103%
same,remaining activity at 125 µM,[3],100%
same,remaining activity at 250 µM,[3],98.5%
same,remaining activity at 2000 µM,[3],78.2%
same,remaining activity at 20000 µM,[3],23.8%
same,growth on replating,"E. coli containing pCGS3; M9/6 mM PPT, from LB",0
same,growth on replating,"E. coli containing pCGS3; M9/6 mM PPT, from M9",0
same,growth on replating,"E. coli containing pCGS3; M9/12 mM PPT, from LB",0
same,growth on replating,"E. coli containing pCGS3; M9/12 mM PPT, from M9",0
